Blank lines part the entries; values can stand above or below the molecule they belong to.
Key:
[1] = test system: monoclonal antibody 13E3; assay: High-volume screen, fluorescent antibody competition assay (inhibition of binding of CS-045 bPE); design: species or system mouse; settings: for % inhibition in screen: approximately 2 μg/ml final concentration, CS-045 bPE binding to 13E3; for IC50: non-thiazolidinedione hits from high-volume screen
Experimental: (§1) Serial dilutions of test compound, fermentation broth, or tissue containing test compound or putative anti-idiotype culture supernatant (20 μl/well) were incubated 20 minutes in 96-well Pandex plates with the appropriate antibody (20 μl/well; 1 μg/ml) plus either goat anti-mouse IgG Latex beads or goat anti-rabbit IgG linked to polystyrene beads (IDEXX) (20 μl/well; 1:2 dilution). Fluorescent reference particles (IDEXX) were included in all assays to minimize well-to-well variation in filtration. Fluorescent CS-045 bPE or LY 301318 bPE (20 μl/well; 1:2,000 dilution) was then added to the wells. Incubations were terminated after 20 minutes by vacuum filtration and the polystyrene particles retained on the Pandex filters were then washed twice with TBS-A buffer (described below) and solid phase fluorescence determined as described above.
(§2) Assay buffers typically contained bovine serum albumin (Sigma) at 0.2% (for monoclonal antibody assays) or 0.5% BLOTTO (non-fat dry milk for rabbit antibody assays). Percent inhibition of binding in test incubations was calculated in relationship to binding in control incubations in which no test compound was added using the following formula: % inhibition=[1-(fluorescence at 575/620 nm in test incubations divided by fluorescence at 575/620 nm in control incubations)×100)]. Concentrations of test compound in fermentation broth or plasma was calculated by interpolation from a standard curve generated with known concentrations of the appropriate compound as described in Taber et al., Clinical Chemistry, 37(2):254 (1991).
The fluorescent antibody competition assay for high-volume screening was adapted as described below. Goat anti-mouse particles (1:2 dilution), fluorescent reference particles (dilution was optimized for each lot), and monoclonal antibody 13E3 (1 μg/ml) were premixed in TBS-A reaction buffer (0.02M Tris, 0.15M NaCl, 0.2% bovine serum albumin, 0.01% thimerosal, pH 7.5) and 40 μls was added to each well of the Pandex plate. Synthetic organic compounds (dissolved at 5 mg/ml DMSO and then diluted in TBS-A reaction buffer to 2 μg/ml) or 1:40 dilutions of fermentation broths were added to appropriate wells (20 μl/well) and incubated for approximately 20 minutes at room temperature. To each well was next added 20 μl of CS-045 bPE fluorogen; this final mixture was again incubated for approximately 20 minutes at room temperature in the dark. Wells were then aspirated by vacuum filtration and washed twice with TBS-A reaction buffer, and surface fluorescence was read at 545/575 nm and 590/620 nm using the Screen Machine (IDEXX Laboratories, Westbrook, Me.). Each Pandex plate contained both a negative control (only reaction buffer) and a positive control (LY 282449).
Final concentrations of synthetic organic compounds in high-volume screens was approximately 2 μg/ml and final concentrations of filtered fermentation broths were 1:40 (v/v). Wells that produced greater than 50% inhibition of binding of CS-045 bPE on both the initial screening and on retesting were considered positives. […] This problem was eliminated by inspection of data from each channel.

[2] = test system: monoclonal antibody 10E1; assay: Fluorescent antibody competition assay, IC50 determined with MoAb 10E1; type: binding, mouse
Experimental: (§3) All hybridoma media were screened for monoclonal anti-CS-045 antibodies on day 17 after fusion. The fluorescent antibody capture method was used and approximately 60 monoclonal antibodies were positive for binding of the CS-045 bPE fluorogen. Among these positive monoclonal antibodies, approximately 6 had binding affinity for 3 tested thiazolidinedione ISEs--LY 282449, [drawing 2] CS-045, and ciglitazone. Fifty percent binding inhibitory concentrations (IC50) were determined and data from 4 monoclonal antibodies are shown in Table 1 below.
as §1, with “Fluorescent CS-045 bPE or LY 301318 bPE (20 μl/well; 1:2,000 dilution) was then added to the wells.” left out
as §2

[3] = test system: monoclonal antibody 8F1; assay: Fluorescent antibody competition assay, IC50 determined with MoAb 8F1; type: binding, mouse
Experimental: as §3
as §1, with “Fluorescent CS-045 bPE or LY 301318 bPE (20 μl/well; 1:2,000 dilution) was then added to the wells.” left out
as §2

[4] = test system: monoclonal antibody 8D6; assay: Fluorescent antibody competition assay, IC50 determined with MoAb 8D6; type: binding, mouse
Experimental: as §3
as §1, with “Fluorescent CS-045 bPE or LY 301318 bPE (20 μl/well; 1:2,000 dilution) was then added to the wells.” left out
as §2

[5] = test system: monoclonal antibody 13E3; assay: Fluorescent antibody competition assay, IC50 determined with MoAb 13E3; type: binding, mouse
Experimental: as §3
as §1, with “Fluorescent CS-045 bPE or LY 301318 bPE (20 μl/well; 1:2,000 dilution) was then added to the wells.” left out
as §2

[6] = test system: 13E3 F(ab')2 fragments; assay: ELISA competitive inhibition between CS-045 and anti-idiotypic antibodies on 13E3 F(ab')2 fragments; type: binding, mouse; settings: 0-200 μM CS-045; FIG. 3
Experimental: To test whether or not CS-045 could, in turn, displace these anti-idiotypicantibodies, 0.3 μg/well of 13E3 F(ab')2 fragments were coated onto microtiter plates and blocked with 1% BLOTTO (non-fat dry milk). Between 0-200 μM of CS-045 was added to duplicate wells. After approximately two hours at room temperature, wells were washed with BLOTTO and 500 ng of anti-idiotypic antibody 2E5 or 7E7 was added for approximately 1 hour. Goat anti-mouse (Fc -specific) conjugated with horseradish peroxidase was added and, after 30 minutes, washed 3 times with BLOTTO. A peroxidase substrate, tetramethylbenzidine (Kirkegaard and Perry Laboratories, Gaithersberg, Md.) was added and color was developed for approximately 30 minutes at room temperature.

[7] = test system: diabetic female (Avy/a) mice; assay: Fed blood glucose in dexamethasone-treated diabetic female Avy/a mice; type: in vivo, mouse; settings: subcutaneous, three days; FIG. 4
Experimental: In order to determine if any of these novel, non-thiazolidinedione structures had anti-diabetic activity, LY 116196 was administered subcutaneously for three days to female Avy/a mice, which had been made diabetic by implantation of dexamethasone pellets. These dexamethasone-treated mice are characterized by both hyperglycemia and hyperinsulinemia and are models of type II diabetes. Sulfonylureas and other insulin secretagogues have little, if any, effect on blood glucose concentrations in this insulin-resistant animal model. […] Thus, this high-volume screen has detected a novel, anti-diabetic compound, LY 116196.

[8] = Plasma levels of LY 116196 by fluorescent antibody competition assay; type: in vivo, mouse; settings: for concentration at 1 h: 1 hr after third injection; for concentration at 3 h: 3 hr after third injection; for concentration at 6 h: 6 hr after third injection
Experimental: as §1, §2
In the same experiment described in FIG. 4, plasma was prepared from tail blood drawn at 1, 3, 6, and 24 hours after the third subcutaneous injection of LY 116196. Plasma concentrations of LY 116196 (shown in Table 5) were determined directly by the fluorescent antibody competition assay using standards of LY 116196 diluted in TBS-A buffer containing 10% (v/v) normal mouse plasma. This method also has been used to measure blood concentrations of several compounds recognized by monoclonal antibody 13E3 and/or other antibodies produced by the methods described above. Thus, these reagents appear to have general utility for determining […] and tissue concentrations of immunologically positive compounds.

% inhibition in screen [1]: 60%
IC50 [1]: 5 µM
Structure (SMILES): FC(F)(F)c1nc2cc(Cl)c(Cl)cc2[nH]1 [LY 047310]

% inhibition in screen [1]: 55%
IC50 [1]: 4 µM
Structure (SMILES): N#Cc1cc(F)cc(F)c1NC(=O)c1ccc(Cl)c(Cl)c1 [LY 820960]

% inhibition in screen [1]: 61%
IC50 [1]: 4 µM
Structure (SMILES): CCCCCC(=O)c1ccc(OC(C)(C)C(=O)O)cc1 [LY 044047]

% inhibition in screen [1]: 94%
IC50 [1]: 0.25 µM
Structure (SMILES): O=P(O)(O)c1ccc(N=Nc2cc(C(F)(F)F)cc3nc(C(F)(F)C(F)F)[nH]c23)cc1 [LY 296345]

% inhibition in screen [1]: 87%
IC50 [1]: 2 µM
Structure (SMILES): CC(C)(Oc1ccc(/C=C/C(=O)c2ccccc2)cc1)C(=O)O [LY 099238]

% inhibition in screen [1]: 89%
IC50 [1]: 2 µM
Structure (SMILES): O=C(O)COc1ccccc1/C=N/N=C/c1ccccc1OCC(=O)O [LY 281809]

% inhibition in screen [1]: 101%
IC50 [1]: 8 µM
Structure (SMILES): CCOC(=O)C(C)OP(=O)(Nc1ccccc1)OC(C)C(=O)OCC (stereo not shown) [LY 222072]

% inhibition in screen [1]: 70%
Structure (SMILES): CN1C(=CC(=C(C=Cc2ccc3ccccc3[n+]2C)Oc2ccccc2O)c2ccccc2)C=Cc2ccccc21 [LY 283909]

% inhibition in screen [1]: 88%
IC50 [1]: 0.25 µM
Structure (SMILES): O=c1[nH]c(=O)n(Cc2ccc(OCCc3coc(-c4ccccc4)n3)cc2)o1 [LY 301563]

IC50 [2]: 0.03 µM
IC50 [3]: 1.15 µM
IC50 [4]: 0.077 µM
IC50 [5]: 0.2 µM
Structure (SMILES): Cc1c(C)c2c(c(C)c1O)CCC(C)(COc1ccc(CC3SC(=O)NC3=O)cc1)O2 (stereo not shown) [CS-045]
Displacement of anti-idiotypic antibodies 2E5 and 7E7 [6]: can displace two anti-idiotypic antibodies

% inhibition in screen [1]: 90%
IC50 [1]: 2 µM
Structure (SMILES): CN(C)C=Nc1nc2c(s1)CCc1sc(C=NN(C)C)nc1-2 [LY 181036]

% inhibition in screen [1]: 53%
IC50 [1]: 3.6 µM
Structure (SMILES): O=C(CC(=O)Nc1nc(-c2ccc(Cl)cc2)cs1)NCCO [LY 305329]

% inhibition in screen [1]: 65%
IC50 [1]: 8 µM
Structure (SMILES): O=C(Nc1ccc(Br)c(Cl)c1)C(F)(C(F)(F)F)C(F)(F)F [LY 800663]

IC50 [2]: 1.41 µM
IC50 [3]: 4.98 µM
IC50 [4]: 4.76 µM
IC50 [5]: 0.52 µM
Structure (SMILES): O=C1NC(=O)C(Cc2ccc3oc(Cc4ccc5ccccc5c4)nc3c2)S1 (stereo not shown) [LY 282449]

% inhibition in screen [1]: 89%
IC50 [1]: 0.25 µM
Structure (SMILES): O=C(O)CC(=O)Nc1nc(-c2ccc(Cl)cc2)cs1 [LY 305334]

Plasma concentration of LY 116196 ([8]; 30 mg s.c., 24 hr after third injection): 0 µM
Plasma concentration of LY 116196 ([8]; 100 mg s.c., 24 hr after third injection): 0 µM
concentration at 1 h ([8]; mouse, plasma, sc, 30 mg s.c.): 25 ± 11 µM
concentration at 3 h ([8]; mouse, plasma, sc, 30 mg s.c.): 0.32 ± 0.2 µM
concentration at 6 h ([8]; mouse, plasma, sc, 30 mg s.c.): 0.104 ± 0.052 µM
concentration at 1 h ([8]; mouse, plasma, sc, 100 mg s.c.): 83.3 ± 8 µM
concentration at 3 h ([8]; mouse, plasma, sc, 100 mg s.c.): 6 ± 1.6 µM
concentration at 6 h ([8]; mouse, plasma, sc, 100 mg s.c.): 0.268 ± 0.088 µM
concentration at 1 h ([8]; mouse, plasma, sc, 300 mg s.c.): 528 ± 72 µM
concentration at 3 h ([8]; mouse, plasma, sc, 300 mg s.c.): 24 ± 5.5 µM
concentration at 6 h ([8]; mouse, plasma, sc, 300 mg s.c.): 6.4 ± 3 µM
concentration at 24 h ([8]; mouse, plasma, sc, 300 mg s.c., 24 hr after third injection): 0.452 ± 0.022 µM
Relative fluorescence, sample channel ([1]; 545/575 nm, 4.0 μM): 360
Relative fluorescence, reference channel ([1]; 590/620 nm, 4.0 μM): 6,500
% inhibition in screen [1]: 105%
IC50 [1]: 0.06 µM
Structure (SMILES): CC(C)(Oc1ccc(C(=O)c2ccc(OC(C)(C)C(=O)O)cc2)cc1)C(=O)O [LY 116196]
Fed blood glucose [7]: effectively lowered fed blood glucose

IC50 [2]: 0.989 µM
IC50 [3]: 12.3 µM
IC50 [4]: 0.125 µM
IC50 [5]: 1.16 µM
Structure (SMILES): CC1(COc2ccc(CC3SC(=O)NC3=O)cc2)CCCCC1 (stereo not shown) [Ciglitazone, ciglitazone]
